For this assay, the target named is T1, FXR (Homo sapiens, UniProt Q96RI1).
T1 construct: using a full length FXR on a natural response element; expressed in transfected cells
T1 sequence (Q96RI1 1-486): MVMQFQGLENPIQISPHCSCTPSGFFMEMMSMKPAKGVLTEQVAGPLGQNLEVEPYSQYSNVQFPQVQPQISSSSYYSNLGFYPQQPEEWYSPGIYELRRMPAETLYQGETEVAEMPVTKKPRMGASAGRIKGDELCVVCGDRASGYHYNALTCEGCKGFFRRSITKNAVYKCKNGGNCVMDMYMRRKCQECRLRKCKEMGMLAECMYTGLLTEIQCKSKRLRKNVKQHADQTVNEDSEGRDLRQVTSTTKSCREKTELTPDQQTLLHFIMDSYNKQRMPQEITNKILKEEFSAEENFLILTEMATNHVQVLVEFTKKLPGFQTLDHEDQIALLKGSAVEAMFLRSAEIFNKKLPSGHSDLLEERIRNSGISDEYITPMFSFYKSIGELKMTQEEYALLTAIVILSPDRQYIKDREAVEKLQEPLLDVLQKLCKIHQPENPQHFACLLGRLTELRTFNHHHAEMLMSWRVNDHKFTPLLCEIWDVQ
Nature of the assay: cell-based FXR transcription assay, FXR responsive promoter linked to luciferase reporter. The following applies: for RE^a / EC50: cell-based FXR reporter assay; for RE^a: footnote a not given; for FXR activation, in words: cell-based reporter assay, SAR discussion; for EC50: determined with Prism 3.0. The text has this: In addition to ensuring that only cell permeable compounds were selected for further optimization, this approach allows for the detection of FXR activation in a natural system (i.e., correct folding of the protein and in the presence of a complete compliment of co-activators and co-repressors).
The feasibility of creating high throughput screens (HTS) for ORs was explored using FXR as a candidate orphan receptor (OR) with a known activator, chenodeoxycholic acid (CDCA) as a ligand. The screen is based on the co-transfection of a full-length receptor with the reporter vector containing a natural hormone response element under a minimal eukaryotic promoter. […] Using this 384-well format, the high throughput screening (HTS) approach to FXR as a candidate OR was employed. […] A central question in the feasibility studies is whether this library is suitable for screening for nuclear receptor ligands. Samples of this library were first reformatted into a 384-well format and then subjected to the FXR cell-based assays described above and assessed for FXR-mediated transcriptional activity. Cells were exposed to approximately 10 μM of sample for 18 hrs prior to washing and luciferase analysis.
EC50 values were determined with Prism 3.0 software via the activity of the subject compound in the previously described cell based assay.

“Also recorded” adds a separate entry of the source.

`COC(=O)C=Cc1cccc(N(Cc2ccc(C=CC(=O)OC(C)(C)C)cc2)C(=O)C2CCC2)c1` [Compound 141]: the “RE^a” value amounted to 1.84 and the “FXR activation, in words” value was “excellent activity”.

Take `COC(=O)C=Cc1cccc(N(Cc2ccc(C=CC(=O)OC(C)(C)C)cc2)C(=O)C2CCCC2)c1` [Compound 142]: the “RE^a” value is on record as 2.16 and the “FXR activation, in words” value was “excellent activity”.

As to `COC(=O)/C=C/c1cccc(N(Cc2ccc(/C=C/C(=O)OC(C)(C)C)cc2)C(=O)c2ccccc2)c1` [Compound 143], the “RE^a” value amounted to 1.96.

In the case of `COC(=O)/C=C/c1cccc(N(Cc2ccc(/C=C/C(=O)OC(C)(C)C)cc2)C(=O)c2ccco2)c1` [Compound 144], the “RE^a” value came out at 1.93.

On to `COC(=O)/C=C/c1cccc(N(Cc2ccc(/C=C/C(=O)OC(C)(C)C)cc2)C(=O)NC(C)C)c1` [Compound 145], for which the “RE^a” value is on record as 1.96.

Consider `COC(=O)C=Cc1cccc(N(Cc2ccc(C=CC(=O)OC(C)(C)C)cc2)C(=O)NCc2ccccc2)c1` [Compound 146], for which the “RE^a” value is 0.27 and the “FXR activation, in words” value is given as “only marginal efficacy”.

With `COC(=O)C=Cc1cccc(N(C)C(=O)C2CCCCC2)c1` [Compound 147], the “RE^a” value worked out at 0.09.

Turning to `COC(=O)C=Cc1cccc(N(Cc2ccc(C(C)(C)C)cc2)C(=O)C2CCCCC2)c1` [Compound 148], the “RE^a” value amounted to 0.15.

For `COC(=O)C=Cc1ccc(CN(C(=O)C2CCCCC2)c2cccc(C=CC(=O)OC)c2)cc1` [Compound 150], the “RE^a” value was determined as 0.87.

As for `CCOC(=O)C=Cc1ccc(CN(C(=O)C2CCCCC2)c2cccc(C=CC(=O)OC)c2)cc1` [Compound 151], the “RE^a” value is reported as 1.14.

As to `COC(=O)C=Cc1cccc(N(Cc2ccc(C=CC(=O)OC(C)C)cc2)C(=O)C2CCCCC2)c1` [Compound 152], the “RE^a” value was 1.97.

For `COC(=O)C=Cc1cccc(N(Cc2ccc(C=CC(=O)OCc3ccccc3)cc2)C(=O)C2CCCCC2)c1` [Compound 153], the “RE^a” value was determined as 0.23.

In the case of `COC(=O)C=Cc1cccc(N(Cc2ccc(C=CC(=O)N(C)C)cc2)C(=O)C2CCCCC2)c1` [Compound 154], the “RE^a” value was determined as 0.66.

On to `COC(=O)C=Cc1cccc(N(Cc2ccc(C=CC(=O)NC(C)(C)C)cc2)C(=O)C2CCCCC2)c1` [Compound 155], for which the EC50 was above 1000 nM and the “RE^a” value is recorded as 1.65.

For the compound `COCC=Cc1ccc(CN(C(=O)C2CCCCC2)c2cccc(C=CC(=O)OC)c2)cc1` [Compound 156], the “RE^a” value came to 1.63.

As for `CCOCC=Cc1ccc(CN(C(=O)C2CCCCC2)c2cccc(C=CC(=O)OC)c2)cc1` [Compound 157], the “RE^a” value amounted to 2.06.

With `COC(=O)C=Cc1cccc(N(Cc2ccc(C=CCOc3ccccc3)cc2)C(=O)C2CCCCC2)c1` [Compound 158], the “RE^a” value stood at 0.64 and the “FXR activation, in words” value is on record as “only micromolar activity”.

In the case of `COC(=O)C=Cc1cccc(N(Cc2ccc(CCC(=O)OC(C)(C)C)cc2)C(=O)C2CCCCC2)c1` [Compound 159], the “RE^a” value was 1.56.

For `CC(C)(C)OC(=O)/C=C/c1cccc(N(Cc2ccc(CCC(=O)OC(C)(C)C)cc2)C(=O)C2CCCCC2)c1` [Compound 160], the “RE^a” value is reported as 0.64.

Regarding `COC(=O)C=Cc1cccc(N(Cc2ccc(C=CC(=O)OC(C)(C)C)cc2O)C(=O)C2CCCCC2)c1` [Compound 161], the “RE^a” value was 0.12.

As for `COC(=O)C=Cc1cccc(N(Cc2ccc(C=CC(=O)OC(C)(C)C)cc2OC)C(=O)C2CCCCC2)c1` [Compound 162], the “RE^a” value amounted to 0.14.

`COC(=O)C=Cc1cccc(N(Cc2ccc(C=CC(=O)OC(C)(C)C)cc2OCc2ccccc2)C(=O)C2CCCCC2)c1` [Compound 163]: the “RE^a” value came out at 0.38.

On to `COC(=O)C=Cc1cccc(N(Cc2ccc(C=CC(=O)OC(C)(C)C)cc2OC(C)=O)C(=O)C2CCCCC2)c1` [Compound 164], for which the “RE^a” value is given as 0.16.

For `COC(=O)C=Cc1cccc(N(Cc2ccc(C=CC(=O)OC(C)(C)C)cc2OC(=O)c2ccccc2)C(=O)C2CCCCC2)c1` [Compound 165], the “RE^a” value was found to be 0.16.

On to `COC(=O)C=Cc1cccc(N(Cc2ccc(C=CC(=O)OC(C)(C)C)cc2OS(C)(=O)=O)C(=O)C2CCCCC2)c1` [Compound 166], for which the “RE^a” value is 0.18.

On to `CCOC(=O)COc1cc(C=CC(=O)OC(C)(C)C)ccc1CN(C(=O)C1CCCCC1)c1cccc(C=CC(=O)OC)c1` [Compound 167], for which the “RE^a” value stood at 0.18.

For `COC(=O)/C=C/c1cccc(N(Cc2ccc(/C=C/c3ccc(C)cc3)cc2)C(=O)C2CCCCC2)c1` [Compound 174], the “RE^a” value was found to be 0.83 and the “FXR activation, in words” value is given as “among the least active”.

Consider `COC(=O)/C=C/c1cccc(N(Cc2ccc(/C=C/c3ccc(C)cc3)cc2)C(=O)C(C)C)c1` [Compound 175], for which the EC50 was 1410 nM and the “RE^a” value is 0.37.

Turning to `COC(=O)/C=C/c1cccc(N(Cc2ccc(/C=C/c3ccc(C)cc3)cc2)C(=O)NC(C)C)c1` [Compound 176], the EC50 is 3570 nM and the “RE^a” value came to 0.10.

`COC(=O)/C=C/c1cccc(N(Cc2ccc(/C=C/c3c(Cl)cccc3Cl)cc2)C(=O)C2CCCCC2)c1` [Compound 177]: the “RE^a” value was determined as 0.12 and the “FXR activation, in words” value is reported as “excellent activity”.

Regarding `COC(=O)/C=C/c1cccc(N(Cc2ccc(/C=C/c3c(Cl)cccc3Cl)cc2)C(=O)C(C)C)c1` [Compound 178], the “RE^a” value is 0.14.

`COC(=O)/C=C/c1cccc(N(Cc2ccc(/C=C/c3c(Cl)cccc3Cl)cc2)C(=O)NC(C)C)c1` [Compound 179]: the 50% effective concentration (EC50) came out at 216 nM and the “RE^a” value turned out to be 0.15.

As to `COC(=O)C=Cc1cccc(N(Cc2ccc(C=Cc3cccc(Cl)c3)cc2)C(=O)C2CCCCC2)c1` [Compound 180], the “RE^a” value was determined as 1.41 and the “FXR activation, in words” value is listed as “excellent activity”.

Consider `COC(=O)/C=C/c1cccc(N(Cc2ccc(/C=C/c3cccc(Cl)c3)cc2)C(=O)C(C)C)c1` [Compound 181], for which it took 164 nM to reach a half-maximal effect (EC50); the “RE^a” value is recorded as 1.09; the “FXR activation, in words” value is “excellent activity”.

As for `COC(=O)/C=C/c1cccc(N(Cc2ccc(/C=C/c3cccc(Cl)c3)cc2)C(=O)NC(C)C)c1` [Compound 182], the “RE^a” value is recorded as 0.59.

As for `COC(=O)C=Cc1cccc(N(Cc2ccc(C=Cc3cc(C(F)(F)F)cc(C(F)(F)F)c3)cc2)C(=O)C2CCCCC2)c1` [Compound 183], the EC50 was 1470 nM and the “RE^a” value worked out at 0.15.

As to `COC(=O)/C=C/c1cccc(N(Cc2ccc(/C=C/c3cc(C(F)(F)F)cc(C(F)(F)F)c3)cc2)C(=O)C(C)C)c1` [Compound 184], the “RE^a” value turned out to be 0.13.

Consider `COC(=O)/C=C/c1cccc(N(Cc2ccc(/C=C/c3cc(C(F)(F)F)cc(C(F)(F)F)c3)cc2)C(=O)NC(C)C)c1` [Compound 185], for which the “RE^a” value amounted to 0.13.

For `COC(=O)C=Cc1cccc(N(Cc2ccc(C=Cc3cccc(C(F)(F)F)c3)cc2)C(=O)C2CCCCC2)c1` [Compound 186], the EC50 stood at 937 nM and the “RE^a” value was 0.35.

`COC(=O)/C=C/c1cccc(N(Cc2ccc(/C=C/c3cccc(C(F)(F)F)c3)cc2)C(=O)C(C)C)c1` [Compound 187]: the “RE^a” value is given as 0.70.

Consider `COC(=O)/C=C/c1cccc(N(Cc2ccc(/C=C/c3cccc(C(F)(F)F)c3)cc2)C(=O)NC(C)C)c1` [Compound 188], for which the “RE^a” value turned out to be 0.31.

Turning to `COC(=O)C=Cc1cccc(N(Cc2ccc(C=Cc3c(F)cccc3F)cc2)C(=O)C2CCCCC2)c1` [Compound 189], the “RE^a” value is reported as 0.94 and the “FXR activation, in words” value is listed as “excellent activity”.

`COC(=O)/C=C/c1cccc(N(Cc2ccc(/C=C/c3c(F)cccc3F)cc2)C(=O)C(C)C)c1` [Compound 190]: the EC50 was determined as 108 nM; the “RE^a” value came out at 0.79; the “FXR activation, in words” value was “excellent activity”.

Regarding `COC(=O)/C=C/c1cccc(N(Cc2ccc(/C=C/c3c(F)cccc3F)cc2)C(=O)NC(C)C)c1` [Compound 191], the “RE^a” value is listed as 0.21.

With `COC(=O)C=Cc1cccc(N(Cc2ccc(C=Cc3ccccc3F)cc2)C(=O)C2CCCCC2)c1` [Compound 192], the “RE^a” value is given as 1.41 and the “FXR activation, in words” value is given as “excellent activity; also recorded: among the most active”.

As for `COC(=O)/C=C/c1cccc(N(Cc2ccc(/C=C/c3ccccc3F)cc2)C(=O)C(C)C)c1` [Compound 193], the “RE^a” value worked out at 1.17 and the “FXR activation, in words” value is recorded as “excellent activity”.

As to `COC(=O)/C=C/c1cccc(N(Cc2ccc(/C=C/c3ccccc3F)cc2)C(=O)NC(C)C)c1` [Compound 194], the “RE^a” value amounted to 0.69.

The record behind these values is patent US7671085B2, “Non-steroidal farnesoid X receptor modulators and methods for the use thereof” (The Salk Institute for Biological Studies, priority 2002, dated 2010).
